Reference: patent EP0925786A1, “REMEDIES FOR ISCHEMIC DISEASES” (MITSUBISHI CHEMICAL CORPORATION, priority 1996, dated 1998)

How the values were obtained:
[1] = system: male Wistar rats; test: Action to improve passive avoidance response after a short period of fore-brain ischemia; assay type: in vivo, rat; conditions: dose of 1 mg/kg, po, 30 minutes before 5 minutes of ischemia loading; retrieval test 48 hours after reperfusion
Source text: Also, animals treated only with cauterization of vertebral arteries were used as a pseudo-operation group. During ischemia and after reperfusion, body temperature of the animals was maintained by putting them on a heat insulating mat until righting reflex was recovered.
An apparatus composed of a light room (50 x 50 x 50 cm) equipped with a 100 W bulb and a dark room (20 x 14 x 20 cm) was used in the passive avoidance response test. Each of the rats which have been subjected to cauterization of both vertebral arteries 48 hours prior to the test was put into the light room and its latency to enter the dark room was measured to be used as the response latency at the time of acquisition trial. […] When each rat entered the dark room, the guillotine door was closed and the rat was immediately exposed to an electric shock (2.9 mA, 5 seconds) from the floor grid, thus completing the acquisition trial. Subsequently, 5 minutes of ischemia loading (occlusion of both common carotid arteries) was carried out under ether anesthesia, and retrieval test was carried out 48 hours after reperfusion. […] Presence or absence of the action to improve passive avoidance response was judged by comparing response latencies of the acquisition trial and retrieval test. Each drug to be tested was orally administered 30 minutes before the ischemia loading.

[2] = Formation of active metabolite in blood (dog sera, HPLC); assay type: in vitro ADME; conditions: same procedure
[3] = Formation of active metabolite in blood (rat serum incubation, HPLC); assay type: in vitro ADME; conditions: final concentration 100 µM, 5 minutes of incubation at 37°C
Procedure: (2S,3S)-2-Acetoxy-3-((S)-4-methyl-2-phenylsulfonylaminovalerylamino)tetrahydrofuran obtained in Inventive Example 2 was dissolved in acetonitrile and added to rat serum to a final concentration of 100 µM. After 5 minutes of incubation at 37°C, this was mixed with acetonitrile and centrifuged and then the thus obtained supernatant fluid was checked by HPLC. It was found as the result that a 97% portion of the thus added (2S,3S)-2-acetoxy-3-((S)-4-methyl-2-phenylsulfonylaminovalerylamino)-tetrahydrofuran was hydrolyzed and converted into its active metabolite (3S)-3-((S)-4-methyl-2-phenylsulfonylaminovalerylamino)-2-tetrahydrofuranol (compound of Inventive Example 1).
HPLC was carried out under the following conditions. • Column: Nucleosil 100 5C18 4.6 x 250 mm (manufactured by Nargel) • Column temperature: 50°C • Mobile phase: CH3CN:H2O:PIC A Low UV (manufactured by Waters) 22:78:1 • Flow rate: 1 ml/min • Detection wave length: UV 222 nm

[4] = Formation of active metabolite in blood (human sera, HPLC); assay type: in vitro ADME; conditions: same procedure
[5] = in vivo; conditions: both sexes, SD, rat, po
[6] = biological target: T1, m-Calpain (Rattus norvegicus, UniProt Q07009); test: Measurement of inhibitory activity against calpain; assay type: biochemical; conditions: m-Calpain purified from rat brain
T1 construct: m-Calpain was purified from rat brain; from tissue; host or cells: rat brain
T1 sequence (Q07009 20-700 limits assumed): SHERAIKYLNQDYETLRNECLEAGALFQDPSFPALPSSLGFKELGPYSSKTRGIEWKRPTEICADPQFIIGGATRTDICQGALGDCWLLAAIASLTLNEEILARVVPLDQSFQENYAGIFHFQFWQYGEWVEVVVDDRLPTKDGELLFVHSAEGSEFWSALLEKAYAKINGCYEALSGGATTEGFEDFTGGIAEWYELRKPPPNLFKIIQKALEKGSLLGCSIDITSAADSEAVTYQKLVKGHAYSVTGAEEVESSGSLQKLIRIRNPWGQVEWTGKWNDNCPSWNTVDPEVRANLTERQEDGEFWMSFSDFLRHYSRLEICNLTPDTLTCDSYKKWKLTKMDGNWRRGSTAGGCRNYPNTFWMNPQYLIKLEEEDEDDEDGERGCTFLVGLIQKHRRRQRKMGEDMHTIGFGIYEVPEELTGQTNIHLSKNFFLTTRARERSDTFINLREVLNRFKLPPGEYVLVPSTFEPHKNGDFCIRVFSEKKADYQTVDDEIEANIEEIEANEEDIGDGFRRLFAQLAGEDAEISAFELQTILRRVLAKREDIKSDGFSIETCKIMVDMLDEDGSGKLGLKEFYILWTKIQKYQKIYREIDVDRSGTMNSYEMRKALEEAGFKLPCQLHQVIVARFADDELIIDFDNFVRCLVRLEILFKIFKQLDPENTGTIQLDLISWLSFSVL
T1 sequence (Q64537 1-270 partner): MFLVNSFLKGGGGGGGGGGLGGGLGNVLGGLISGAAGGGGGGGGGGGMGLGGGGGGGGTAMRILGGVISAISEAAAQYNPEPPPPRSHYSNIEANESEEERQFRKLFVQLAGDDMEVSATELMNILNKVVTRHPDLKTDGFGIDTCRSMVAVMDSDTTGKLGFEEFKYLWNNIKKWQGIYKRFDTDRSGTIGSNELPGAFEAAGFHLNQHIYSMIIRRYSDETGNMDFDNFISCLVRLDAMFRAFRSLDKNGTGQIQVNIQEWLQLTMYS
Procedure: m-Calpain was purified from rat brain in accordance with the method described in Journal of Biological Chemistry, vol. 259, p. 3210, 1984, and its inhibitory activity was measured in accordance with the method described in Journal of Biological Chemistry, vol. 259, p. 12489, 1984.

[7] = system: female SD rats; test: Myocardial infarct size-limiting effect in acute myocardial infarction model of rat; assay type: in vivo
Procedure: An experiment was performed on female SD rats (14 weeks of age). The rats were lightly anesthetized with ether and a left thoracotomy wag performed. A permanent occlusion was placed around the proximal left coronary artery to produce acute myocardial infarction. Infarct size evaluated in each excised heart at 24 hours after the ligation.
The animals were divided into 2 groups at random, and 10 mg/kg of the compound of Inventive Example 29 (Compound No.. 426 in Table 2) suspended in water with Tween 80 was orally administered in a volume of 1 ml/kg to each animal of one of these groups (drug group) 1 hour before the coronary artery ligation, while the same volume of tap water was administered to the other group (control group). A rat with successful thoracotomy and which survived until 24 hours after the coronary ligation was used as the final evaluation subject. This study was continued until the final number of animals in each group reached 8.
Evaluation of the myocardial infarct size was carried out in the following manner. Each of the excised heart was cut into the slices at 2 mm thick from apex to base, and the sections were stained by incubating them in TTC solution (1%) at 37°C for 20 minutes to confirm necrotic region and non-necrotic region. Thereafter, sectional images of the sections were photographed to carry out image analysis on a computer. The infarction size was expressed as a % value obtained by dividing total area of necrotic area of all sliced sections by total left ventricle area (including septum part and excluding left ventricle cavity).

With CC(=O)O[C@@H]1OCC[C@@H]1NC(=O)[C@H](CC(C)C)NS(=O)(=O)c1ccccc1 [Inventive Example 2, (2S,3S)-2-acetoxy-3-((S)-4-methyl-2-phenylsulfonylaminovalerylamino)tetrahydrofuran] as the compound, how does the “action to improve passive avoidance response” value [1] read?
Its value is “showed the improving action”.

What about the “formation of active metabolite” value [2] of the same compound?
The value was “the same active metabolite is formed”.

What about the “portion hydrolyzed and converted into its active metabolite” value [3] of the same compound?
The value was 97%.

And the “formation of active metabolite” value [4]?
Its value is “the same active metabolite is formed”.

And the LD50 at 7 days [5]?
The LD50 at 7 days was greater than 2000 mg/kg.

For CCCCCCCCCCCCCCOC(=O)N[C@@H](CC(C)C)C(=O)N[C@H]1CCOC1O (stereo partly drawn) [Inventive Example 3, (3S)-3-((S)-4-methyl-2-tetradecyloxycarbonylaminovalerylamino)-2-tetrahydrofuranol], which IC50 [6] is on record?
Its IC50 is 110 nM.

With CCCCCCCCCCCCCCC(=O)N[C@@H](CC(C)C)C(=O)N[C@H]1CCOC1O (stereo partly drawn) [Inventive Example 8, (3S)-3-((S)-4-methyl-2-pentadecanoylaminovalerylamino)-2-tetrahydrofuranol] as the compound, how does the IC50 [6] read?
The IC50 was 110 nM.

For CCCCCCCCCCCCCCCC(=O)N[C@@H](CC(C)C)C(=O)N[C@H]1CCOC1O (stereo partly drawn) [Inventive Example 9, (3S)-3-((S)-2-hexadecanoylamino-4-methylvalerylamino)-2-tetrahydrofuranol], which IC50 [6] is on record?
The IC50 was 160 nM.

With CC(C)C[C@H](NC(=O)c1ccccc1F)C(=O)N[C@H]1CCOC1O (stereo partly drawn) [Inventive Example 10, (3S)-3-{(S)-2-(2-fluorobenzoylamino)-4-methylvalerylamino}-2-tetrahydrofuranol] as the compound, how does the IC50 [6] read?
The IC50 was 170 nM.

Which IC50 [6] does the source give for Cc1ccc(C(=O)N[C@@H](CC(C)C)C(=O)N[C@H]2CCOC2O)cc1 (stereo partly drawn) [Inventive Example 12, (3S)-3-{(S)-4-methyl-2-(4-methylbenzoylamino)valerylamino}-2-tetrahydrofuranol] here?
Its IC50 is 330 nM.

For CCCCCCCCCCCCCCCCS(=O)(=O)N[C@@H](CC(C)C)C(=O)N[C@H]1CCOC1O (stereo partly drawn) [Inventive Example 13, (3S)-3-((S)-2-hexadecylsufonylamino-4-methylvalerylamino)-2-tetrahydrofuranol], which IC50 [6] is on record?
Its IC50 is 420 nM.

For COc1ccc(S(=O)(=O)N[C@@H](CC(C)C)C(=O)N[C@H]2CCOC2O)cc1 (stereo partly drawn) [Inventive Example 17, (3S)-3-{(S)-2-(4-methoxyphenylsulfonylamino)-4-methylvalerylamino}-2-tetrahydrofuranol], which IC50 [6] is on record?
Its IC50 is 670 nM.

With CC(C)C[C@H](NS(=O)(=O)c1ccc2ccccc2c1)C(=O)N[C@H]1CCOC1O (stereo partly drawn) [Inventive Example 18, (3S)-3-{(S)-4-methyl-2-(2-naphthylsulfonylamino)valerylamino}-2-tetrahydrofuranol] as the compound, how does the IC50 [6] read?
Its IC50 is 360 nM.

Which IC50 [6] does the source give for CC(C)C[C@H](NS(=O)(=O)c1ccccc1)C(=O)N[C@H]1C(C)COC1O (stereo partly drawn) [Inventive Example 19, (3S)-4-methyl-3-((S)-4-methyl-2-phenylsulfonylaminovalerylamino)-2-tetrahydrofuranol] here?
Its IC50 is 2500 nM.

For CC(=O)O[C@@H]1OCC[C@@H]1NC(=O)[C@H](CC(C)C)NC(=O)c1ccccc1F [Inventive Example 24, (2S,3S)-2-acetoxy-3-{(S)-2-(2-fluorobenzoylamino)-4-methylvalerylamino}tetrahydrofuran], which “action to improve passive avoidance response” value [1] is on record?
The value was “showed the improving action”.

Which infarct size ([7]; 10 mg/kg orally 1 hour before coronary artery ligation, 24 hours after ligation, necrotic area / total left ventricle area, control 37.3 ± 3.5%) does the source give for CC(=O)O[C@@H]1OCC[C@@H]1NC(=O)[C@H](CC(C)C)NS(=O)(=O)c1c(C)cc(C)cc1C [Inventive Example 29, (2S,3S)-2-acetoxy-3-{(S)-4-methyl-2-(2,4,6-trimethylphenylsulfonylamino)valerylamino}tetrahydrofuran] here?
Its infarct size is 25.0 ± 1.7%.

What about the “infarct size reducing ratio” value ([7]; 10 mg/kg orally, based on the control group) of the same compound?
The value was 33.0%.

And the “animals died during the thoracotomy” value ([7]; drug group 10 mg/kg orally, control group 2)?
The value was 3.

And the “animals died within 24 hours after the operation” value ([7]; drug group 10 mg/kg orally, control group 9)?
Its value is 10.

What about the LD50 at 7 days [5] of the same compound?
Its LD50 at 7 days is greater than 2000 mg/kg.
